{
  "source": "patent US20140135390A1",
  "about": "“Modified Platinum Compounds” (priority 2011, published 2014)",
  "key": {"[1]": {"test_system": "murine breast cancer cells EMT-6", "test": "In vitro cell viability of EMT-6 cells after 48 hours incubation, viable cells counted with a hemocytometer", "type": "cell-based", "conditions": "1 μM, 50 μM and 100 μM", "method": "A murine breast cancer cells EMT-6 (0.5*10^6 cells/plate) were plated and grown in Dulbecco's Modified Eagle Medium (DMEM) supplemented with 10% FBS, 2% L-Glutamine Solution (200 mM), 2% Pen-Strep Solution (Biological Industries), and […] D-Glucose under regular growth conditions: 5% CO2, and 37.6° C.\nAfter the incubation time, cells were washed with PBS (3 times), harvested using Trypsin-EDTA solution (Biological Industries), and the number of viable cells was counted under microscope using a microscope counting chamber (Hemocytometer)."}, "treated patients": {"test_system": "treated patients", "conditions": "dose limiting toxicity; cited from earlier work"}},
  "data": [
    {"molecule": "N.N.[Cl][Pt][Cl]", "note": "[Cisplatin, cis-diamminedichloroplatinum(II)]", "values": [
      {"measurement": "toxicity to the cells / effect on cell number (FIG. 1)", "setting": "[1]", "value": "dose-dependent reduction in the cells"},
      {"measurement": "sensory neuropathy, share of treated patients", "setting": "treated patients", "value": "more than 20%"}
    ]}
  ]
}
